Experimental data from PMC4278837, “A Cyclic Peptidic Serine Protease Inhibitor: Increasing Affinity by Increasing Peptide Flexibility” (PLoS ONE, 2014).
Read-outs that look alike come from different tables or passages of the source. Bridge positions count the residues as written; N and C are the ends. Square brackets hold non-standard residues; d marks the D form. Peptide text beside a SMILES is read from it. Ala(1-amidino-4-piperidyl) = N=C(N)N1CCC(C[C@H](N)C(=O)O)CC1

How the values were obtained:
[1] = target: T1, huPA-H99Y R35A (Homo sapiens, UniProt P00749, H272Y/R198A); assay: Ki for inhibition of huPA-H99Y-R35A, chromogenic substrate; type: biochemical
T1 construct: To ensure that the uPAs purified from the conditioned media were completely in the two-chain form, they were treated with plasmin; hexa-His (C); made in house; host or cells: HEK293 6E suspension cells
Text: (§1) Determination of Ki values
(§2) The initial reaction velocities were monitored at an absorbance of 405 nm. The inhibition constants (K i) were subsequently determined from the non-linear regression analyses of plots for V i/V o versus [I]0, using Equation 2, derived under assumption of competitive inhibition:
(§3) [drawing 2] (2) where V i and V 0 are the reaction velocities in the presence and absence of inhibitor, respectively; [S]0 and [I]0 are the substrate and inhibitor concentrations, respectively; K M is K M for substrate hydrolysis by each protease. In Equation 2, it is assumed that [S]free ≈ [S]0 and [I]free ≈ [I]0.

[2] = target: T2, huPA-H99Y V41A (Homo sapiens, UniProt P00749, H272Y/V208A); assay: Ki for inhibition of huPA-H99Y-V41A, chromogenic substrate; type: biochemical
T2 construct: To ensure that the uPAs purified from the conditioned media were completely in the two-chain form, they were treated with plasmin; hexa-His (C); made in house; host or cells: HEK293 6E suspension cells
Text: as §1, §2, §3

[3] = target: T3, huPA-H99Y K143A (Homo sapiens, UniProt P00749, H272Y/K320A); assay: Ki for inhibition of huPA-H99Y-K143A, chromogenic substrate; type: biochemical
T3 construct: To ensure that the uPAs purified from the conditioned media were completely in the two-chain form, they were treated with plasmin; hexa-His (C); made in house; host or cells: HEK293 6E suspension cells
Text: as §1, §2, §3

[4] = target: T4, muPA K41A (Mus musculus, UniProt P06869, K210A); assay: Ki for inhibition of muPA-K41A, chromogenic substrate; type: biochemical, murine
T4 construct: To ensure that the uPAs purified from the conditioned media were completely in the two-chain form, they were treated with plasmin; hexa-His (C); made in house; host or cells: HEK293 6E suspension cells
T4 sequence (P06869 180-433 K210A): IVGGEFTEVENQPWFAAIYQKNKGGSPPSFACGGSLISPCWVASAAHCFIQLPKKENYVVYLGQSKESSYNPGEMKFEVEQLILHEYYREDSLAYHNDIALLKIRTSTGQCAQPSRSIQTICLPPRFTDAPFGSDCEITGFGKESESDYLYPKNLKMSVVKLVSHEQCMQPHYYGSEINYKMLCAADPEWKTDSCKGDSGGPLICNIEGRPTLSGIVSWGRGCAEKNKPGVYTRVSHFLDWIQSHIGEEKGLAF
T4 sequence (P06869 21-178 partner limits assumed): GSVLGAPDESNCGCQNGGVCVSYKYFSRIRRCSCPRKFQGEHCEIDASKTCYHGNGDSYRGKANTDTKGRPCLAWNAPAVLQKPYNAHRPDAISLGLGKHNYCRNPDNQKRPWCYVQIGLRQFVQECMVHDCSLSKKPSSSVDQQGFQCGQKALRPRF
Text: as §1, §2, §3

[5] = target: T5, muPA Y99A (Mus musculus, UniProt P06869, Y274A); assay: Ki for inhibition of muPA-Y99A, chromogenic substrate; type: biochemical, murine
T5 construct: To ensure that the uPAs purified from the conditioned media were completely in the two-chain form, they were treated with plasmin; hexa-His (C); made in house; host or cells: HEK293 6E suspension cells
T5 sequence (P06869 180-433 Y274A): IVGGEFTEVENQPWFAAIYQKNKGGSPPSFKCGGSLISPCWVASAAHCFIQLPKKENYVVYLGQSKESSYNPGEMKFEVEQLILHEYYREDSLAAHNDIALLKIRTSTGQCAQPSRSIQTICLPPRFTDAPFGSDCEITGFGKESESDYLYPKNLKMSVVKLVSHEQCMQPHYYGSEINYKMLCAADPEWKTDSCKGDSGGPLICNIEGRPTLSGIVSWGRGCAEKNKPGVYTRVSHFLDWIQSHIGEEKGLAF
T5 sequence (P06869 21-178 partner limits assumed): as the sequence (P06869 21-178 partner limits assumed) above
Text: as §1, §2, §3

[6] = target: T6, muPA K143A (Mus musculus, UniProt P06869, K322A); assay: Ki for inhibition of muPA-K143A, chromogenic substrate; type: biochemical, murine; conditions: means ± S.D.; read-out: K i for inhibition of muPA-K143A
T6 construct: To ensure that the uPAs purified from the conditioned media were completely in the two-chain form, they were treated with plasmin; hexa-His (C); made in house; host or cells: HEK293 6E suspension cells
T6 sequence (P06869 180-433 K322A): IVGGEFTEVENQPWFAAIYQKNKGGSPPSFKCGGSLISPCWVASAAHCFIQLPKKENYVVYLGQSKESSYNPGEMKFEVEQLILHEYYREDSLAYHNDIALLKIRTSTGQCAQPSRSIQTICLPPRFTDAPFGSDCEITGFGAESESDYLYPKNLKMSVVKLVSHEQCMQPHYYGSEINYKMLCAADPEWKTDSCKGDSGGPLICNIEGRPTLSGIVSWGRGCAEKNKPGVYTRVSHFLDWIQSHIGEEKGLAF
T6 sequence (P06869 21-178 partner limits assumed): as the sequence (P06869 21-178 partner limits assumed) above
Text: as §1, §2, §3

[7] = target: T7, muPA S190A (Mus musculus, UniProt P06869, S373A); assay: Ki for inhibition of muPA-S190A, chromogenic substrate; type: biochemical, murine
T7 construct: To ensure that the uPAs purified from the conditioned media were completely in the two-chain form, they were treated with plasmin; hexa-His (C); made in house; host or cells: HEK293 6E suspension cells
T7 sequence (P06869 180-433 S373A): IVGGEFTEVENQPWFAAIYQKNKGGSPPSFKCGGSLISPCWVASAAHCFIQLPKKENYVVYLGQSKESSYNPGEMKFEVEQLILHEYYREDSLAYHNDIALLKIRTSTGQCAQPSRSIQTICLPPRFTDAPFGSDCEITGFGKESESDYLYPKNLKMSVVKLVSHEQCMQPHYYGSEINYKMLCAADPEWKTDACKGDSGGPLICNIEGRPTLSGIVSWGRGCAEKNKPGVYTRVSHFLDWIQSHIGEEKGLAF
T7 sequence (P06869 21-178 partner limits assumed): as the sequence (P06869 21-178 partner limits assumed) above
Text: as §1, §2, §3

[8] = target: T8, muPA V213T (Mus musculus, UniProt P06869, V396T); assay: Ki for inhibition of muPA-V213T, chromogenic substrate; type: biochemical, murine
T8 construct: To ensure that the uPAs purified from the conditioned media were completely in the two-chain form, they were treated with plasmin; hexa-His (C); made in house; host or cells: HEK293 6E suspension cells
T8 sequence (P06869 180-433 V396T): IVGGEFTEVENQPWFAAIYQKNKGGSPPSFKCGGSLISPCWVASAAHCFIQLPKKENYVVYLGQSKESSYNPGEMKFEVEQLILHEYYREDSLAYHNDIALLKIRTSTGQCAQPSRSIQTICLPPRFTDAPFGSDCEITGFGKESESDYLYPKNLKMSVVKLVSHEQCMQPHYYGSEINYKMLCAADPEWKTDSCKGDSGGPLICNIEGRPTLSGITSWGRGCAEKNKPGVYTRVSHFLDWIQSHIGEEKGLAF
T8 sequence (P06869 21-178 partner limits assumed): as the sequence (P06869 21-178 partner limits assumed) above
Text: as §1, §2, §3

[9] = target: T9, huPA-H99Y (Homo sapiens, UniProt P00749, H272Y); assay: Surface plasmon resonance analysis of peptide binding to huPA-H99Y; conditions: SPR; for koff: read-out: koff of fitted curve, representative sensorgram; for kon: read-out: kon of fitted curve, representative sensorgram
T9 construct: To ensure that the uPAs purified from the conditioned media were completely in the two-chain form, they were treated with plasmin; hexa-His (C); made in house; host or cells: HEK293 6E suspension cells
Method: (§4) Surface plasmon resonance (SPR) analysis
(§5) To determine the equilibrium binding constants (KD), the association rate constants (kon) and dissociation rate constants (koff) for peptide binding to uPA, surface plasmon resonance analysis was performed on a Biacore T200 instrument (Biacore, Uppsala, Sweden). A CM5 chip was coupled with the uPA variant (muPA or huPAH99Y) to be analysed, by injecting a concentration of 30 µg/mL uPA in immobilization buffer (10 mM sodium acetate, pH 5.0), aiming for an immobilised level of approximately 500 response units (RU). Immobilisation was followed by surface blocking with ethanolamine. A reference cell was prepared in the same way, without coupling of uPA. Mupain-1 variants in HBS with 0.1% BSA, in a dilution series, were injected at a flow rate of 30 µL per min during 60 s at 25°C. Subsequently, the dissociation was monitored during 600 s. Kinetic constants (k on and k off) were calculated with the Biacore Evaluation Software, using the 1∶1 kinetic fit. The K D values were calculated as k off /k on.

[10] = target: T10, muPA (Mus musculus, UniProt P06869); assay: Surface plasmon resonance analysis of peptide binding to muPA; design: species or system murine; conditions: SPR, 25°C, pH 7.4
T10 construct: To ensure that the uPAs purified from the conditioned media were completely in the two-chain form, they were treated with plasmin; hexa-His (C); made in house; host or cells: HEK293 6E suspension cells
T10 sequence (P06869 180-433 limits assumed): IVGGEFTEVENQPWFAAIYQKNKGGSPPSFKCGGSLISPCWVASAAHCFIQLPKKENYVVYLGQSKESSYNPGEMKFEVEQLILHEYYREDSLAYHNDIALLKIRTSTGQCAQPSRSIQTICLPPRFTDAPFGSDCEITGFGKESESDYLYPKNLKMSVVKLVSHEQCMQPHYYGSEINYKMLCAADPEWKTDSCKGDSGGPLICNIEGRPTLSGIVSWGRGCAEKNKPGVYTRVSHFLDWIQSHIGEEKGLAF
T10 sequence (P06869 21-178 partner limits assumed): as the sequence (P06869 21-178 partner limits assumed) above
Method: as §4, §5

[11] = target: T9, huPA-H99Y; conditions: 37°C; means ± S.D.; starred values reproduced from previous publications; ref Andersen et al., 2008; Hosseini et al., 2011; read-out: K i for inhibition of huPA-H99Y; cited from earlier work
[12] = target: T11, muPA wt (Mus musculus, UniProt P06869); conditions: cited from earlier work
T11 construct: To ensure that the uPAs purified from the conditioned media were completely in the two-chain form, they were treated with plasmin; hexa-His (C); made in house; host or cells: HEK293 6E suspension cells
T11 sequence (P06869 180-433 limits assumed): as the sequence (P06869 180-433 limits assumed) above
T11 sequence (P06869 21-178 partner limits assumed): as the sequence (P06869 21-178 partner limits assumed) above

[13] = target: huPA-H99Y Q192A (Homo sapiens, UniProt P00749, H272Y/Q373A); assay: Ki for inhibition of huPA-H99Y-Q192A, chromogenic substrate; type: biochemical; design: To ensure that the uPAs purified from the conditioned media were completely in the two-chain form, they were treated with plasmin; hexa-His (C); made in house; host or cells: HEK293 6E suspension cells
Text: as §1, §2, §3

[14] = target: T12, huPA-H99Y (Homo sapiens, UniProt P00749, C299A/H272Y/N322Q); assay: Isothermal titration calorimetry for binding to huPA-H99Y catalytic domain; conditions: ITC, 25°C, pH 7.4
T12 construct: recombinant uPA catalytic domain (residues 159–411), harbouring a H99Y mutation; made in house; host or cells: Pichia pastoris X-33 (secreted)
Method: For these experiments, we used the catalytic domain of huPA-H99Y expressed in and purified from Pichia pastoris strain X-33 (see above). The protein was dissolved in and dialysed against a buffer of 20 mM sodium phosphate, pH 7.4, 140 mM NaCl. The protein concentration was determined by absorbance at 280 nm, using an extinction coefficient of 43810 M^−1cm^−1. The peptides were dissolved in the above-mentioned buffer. All isothermal titration calorimetry experiments were performed with a MicroCal^TM ITC200 instrument equilibrated to a temperature of 25°C (298oK). The concentration of uPA-H99Y catalytic domain used in the 200 µl sample cell was 5–50 µM, depending on the affinity of the ligand. Titrations were performed by injecting 2 µl of the ligand until the total syringe volume of 40 µl was spent. Titration of ligand into buffer was performed to obtain buffer correction. The equilibrium association constant KA and the reaction enthalpy ΔH were calculated by fitting the integrated titration peaks using a one-binding-site model in the ITC ORIGIN7 programme package. The following formulas for Gibbs free energy ΔG were used to analyse the measured energies
[drawing 4] (4) where R is the gas constant and T the absolute temperature. ΔS, the entropic change during the reaction, was calculated using equations 3 and 4 and the measured K A and ΔH values.

[15] = huPA-H99Y immobilized on CM5 chip, single example (S3 Fig)

CC(=O)N[C@H]1CSSC[C@@H](C(N)=O)NC(=O)[C@H](CC(=O)O)NC(=O)[C@H](CC(C)C)NC(=O)[C@H](Cc2ccc(O)cc2)NC(=O)[C@H](CC2CCN(C(=N)N)CC2)NC(=O)[C@H](CO)NC(=O)[C@H](Cc2ccc(O)cc2)NC(=O)[C@H](C)NC(=O)[C@@H]2CCCN2C1=O [Mupain-1-16, CPAYS[L-3-(N-amidino-4-piperidyl)alanine]YLDC] (Ac-CPAYS[Ala(1-amidino-4-piperidyl)]YLDC-NH2; disulfide 1-10)
Ki ([1]; 37°C, means ± S.D., read-out: K i for inhibition of huPA-H99Y-R35A): 2500 ± 290 nM
Ki ([2]; 37°C, means ± S.D., read-out: K i for inhibition of huPA-H99Y-V41A): 1950 ± 300 nM
Ki ([3]; 37°C, means ± S.D., read-out: K i for inhibition of huPA-H99Y-K143A): 1130 ± 320 nM
Ki ([4]; means ± S.D., read-out: K i for inhibition of muPA-K41A): 300 ± 50 nM
Ki ([5]; means ± S.D., read-out: K i for inhibition of muPA-Y99A): 1240 ± 440 nM
Ki [6]: 130 ± 20 nM
Ki ([7]; means ± S.D., read-out: K i for inhibition of muPA-S190A): 352 ± 40 nM
Ki ([8]; means ± S.D., read-out: K i for inhibition of muPA-V213T): 13 ± 3 nM
k off, huPA-H99Y ([9]; 25°C, pH 7.4): 8.93±0.46 (4) s^-1, ×10^2
k on, huPA-H99Y ([9]; 25°C, pH 7.4): 1.07±0.15 (4) M^-1s^-1, ×10^-5
Kd ([9]; 25°C, pH 7.4, calculated as k off/k on, read-out: K D, huPA-H99Y): 844 ± 132 nM
Kd ([9]; huPA-H99Y immobilized on CM5 chip, single example (S3 Fig), read-out: KD of fitted curve, representative sensorgram): 920 nM
koff [9, 15]: 0.0929 s⁻¹
kon [9, 15]: 101000 M⁻¹ s⁻¹
k off, muPA [10]: 0.671±0.119 (3) s^−1, ×10^2
k on, muPA [10]: 0.898±0.545 (3) M^−1s^−1, ×10^−5
Ki [11]: 2480 ± 70 nM
Ki ([12]; means ± S.D., starred values reproduced from previous publications, ref Andersen et al., 2008, Hosseini et al., 2011, read-out: K i for inhibition of muPA wt): 45 ± 10 nM
Ki ([13]; 37°C, means ± S.D., read-out: K i for inhibition of huPA-H99Y-Q192A): 2710 ± 280 nM

CC(=O)N[C@H]1CSSC[C@@H](C(N)=O)NC(=O)[C@H](CC(=O)O)NC(=O)[C@H](CC(C)C)NC(=O)[C@H](Cc2ccc(O)cc2)NC(=O)[C@H](CCCNC(=N)N)NC(=O)[C@H](CO)NC(=O)[C@H](Cc2ccc(O)cc2)NC(=O)[C@H](C)NC(=O)[C@@H]2CCCN2C1=O [Mupain-1, CPAYSRYLDC] (Ac-CPAYSRYLDC-NH2; disulfide 1-10)
Ki [1]: 39500 ± 2900 nM
Ki [2]: 32400 ± 5300 nM
Ki [3]: 56600 ± 8000 nM
Ki [4]: 4290 ± 150 nM
Ki [5]: 26000 ± 5800 nM
Ki [6]: 4880 ± 350 nM
Ki [7]: 1600 ± 530 nM
Ki [8]: 246 ± 44 nM
Kd ([9]; K D, huPA-H99Y, 25°C, pH 7.4, calculated as k off/k on): 14100 ± 2400 nM
Kd ([9]; KD of fitted curve, representative sensorgram, huPA-H99Y immobilized on CM5 chip, single example (S3 Fig)): 15800 nM
k off, huPA-H99Y ([9]; 25°C, pH 7.4): 80.2±7.6 (4) s^-1, ×10^2
k on, huPA-H99Y ([9]; 25°C, pH 7.4): 0.569±0.103 (4) M^-1s^-1, ×10^-5
koff [9, 15]: 0.803 s⁻¹
kon [9, 15]: 50900 M⁻¹ s⁻¹
k off, muPA [10]: 3.64±1.03 (6) s^−1, ×10^2
k on, muPA [10]: 0.914±0.250 (6) M^−1s^−1, ×10^−5
Kd [14]: 5040 ± 1610 nM
Ki [11]: 15300 ± 2000 nM
Ki ([12]; introduction, read-out: K i value for inhibition of muPA): ~500 nM
Ki [13]: 33200 ± 4200 nM
